Results on 3 molecules are retold here after article PMC11059152, “Discovery of an Aldo-Keto reductase 1C3 (AKR1C3) degrader” (Communications Chemistry, 2024).

Holding throughout (assay type): biochemical
One assay concerns the target T1, AKR1C2 (Homo sapiens, UniProt P52895).
T1 construct: homogeneous recombinant enzyme
T1 sequence (P52895 1-323): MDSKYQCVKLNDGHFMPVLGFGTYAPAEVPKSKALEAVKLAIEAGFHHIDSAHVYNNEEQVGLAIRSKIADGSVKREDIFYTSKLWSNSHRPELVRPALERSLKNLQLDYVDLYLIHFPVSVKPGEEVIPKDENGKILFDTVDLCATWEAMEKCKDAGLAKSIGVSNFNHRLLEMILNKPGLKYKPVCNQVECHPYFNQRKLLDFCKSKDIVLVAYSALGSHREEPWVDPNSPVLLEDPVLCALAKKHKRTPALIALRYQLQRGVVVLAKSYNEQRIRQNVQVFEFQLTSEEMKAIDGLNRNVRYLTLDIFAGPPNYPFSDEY
The assay is described as follows: oxidation by purified enzyme, absorbance at […] nm; Km. As to conditions: cited from earlier work.

The target in the next assay is T2, AKR1C1 (Homo sapiens, UniProt Q04828).
T2 construct: homogeneous recombinant enzyme
T2 sequence (Q04828 1-323): T1 sequence (P52895 1-323) with V38T, H47R, V54L, S87C, M151V, H170R, L172Q
The assay is described as follows: specific activity of purified enzyme, absorbance at […] nm.

A further assay deals with T3, AKR1C3 (Homo sapiens, UniProt P42330).
T3 construct: homogeneous recombinant enzyme
T3 sequence (P42330 1-323): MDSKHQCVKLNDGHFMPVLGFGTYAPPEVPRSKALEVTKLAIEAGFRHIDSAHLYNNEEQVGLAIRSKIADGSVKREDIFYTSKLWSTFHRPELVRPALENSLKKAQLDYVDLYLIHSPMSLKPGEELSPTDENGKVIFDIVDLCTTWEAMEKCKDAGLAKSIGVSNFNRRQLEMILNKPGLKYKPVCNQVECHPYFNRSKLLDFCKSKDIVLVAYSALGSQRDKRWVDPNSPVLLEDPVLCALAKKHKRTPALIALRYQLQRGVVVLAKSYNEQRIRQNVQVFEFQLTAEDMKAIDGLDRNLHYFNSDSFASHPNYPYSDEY
Description: inhibition of NADP+-dependent S-tetralol oxidation by recombinant enzyme.

The term Km denotes the concentration of substrate that gives half-maximal velocity. As a reminder, the IC50 is the concentration at which inhibition is half-maximal.

Each structure is given as a SMILES string. Numbering of substitutions follows the chain as printed.

As for `O[C@H]1CCCc2ccccc21` [S-tetralol, (S)-(+)-1,2,3,4-tetrahydro-1-naphthol], the Km at AKR1C2 is 15 µM. The “specific activity of purified enzyme, absorbance at 340 nm” value on AKR1C1 came to 1.4 µmol/min/mg.

In the case of `C#CCOc1ccc(CNC(=O)c2cc(/C=C/C(=O)O)cc(-c3ccccc3)c2)cc1` [compound 4, warhead 4], at AKR1C3, the IC50 is 62 ± 1 nM.

As for `O=C(O)/C=C/c1cc(C(=O)NCc2ccc(OCc3cn(CCOCCOCC(=O)Nc4cccc5c4CN(C4CCC(=O)NC4=O)C5=O)nn3)cc2)cc(-c2ccccc2)c1` (stereo not shown) [compound 5, (E)-3-(5-((4-((1-(2-(2-(2-((2-(2,6-dioxopiperidin-3-yl)-1-oxoisoindolin-4-yl)amino)-2-oxoethoxy)ethoxy)ethyl)-1H-1,2,3-triazol-4-yl)methoxy)benzyl)carbamoyl)-[1,1’-biphenyl]-3-yl)acrylic acid], the half-maximal inhibitory concentration (IC50) on AKR1C3 stood at 77 ± 2 nM.
